PMC9194936, “Preclinical Activity and Pharmacokinetic/Pharmacodynamic Relationship for a Series of Novel Benzenesulfonamide Perforin Inhibitors” (ACS Pharmacology & Translational Science, 2022)
Each block holds one molecule with its values, some of them ahead of it.

Columns and labels:
perforin = target: T1, perforin (Mus musculus, UniProt P10820); assay: In vivo perforin inhibition (allogeneic bone marrow transfer assay); details: for % perforin inhibition, spleen: 24 h after transplant
T1 construct: endogenous in cells; host or cells: recipient cytotoxic lymphocytes (NK/CTL) of wild-type C57BL/6 mice, in vivo
T1 sequence (P10820 21-554): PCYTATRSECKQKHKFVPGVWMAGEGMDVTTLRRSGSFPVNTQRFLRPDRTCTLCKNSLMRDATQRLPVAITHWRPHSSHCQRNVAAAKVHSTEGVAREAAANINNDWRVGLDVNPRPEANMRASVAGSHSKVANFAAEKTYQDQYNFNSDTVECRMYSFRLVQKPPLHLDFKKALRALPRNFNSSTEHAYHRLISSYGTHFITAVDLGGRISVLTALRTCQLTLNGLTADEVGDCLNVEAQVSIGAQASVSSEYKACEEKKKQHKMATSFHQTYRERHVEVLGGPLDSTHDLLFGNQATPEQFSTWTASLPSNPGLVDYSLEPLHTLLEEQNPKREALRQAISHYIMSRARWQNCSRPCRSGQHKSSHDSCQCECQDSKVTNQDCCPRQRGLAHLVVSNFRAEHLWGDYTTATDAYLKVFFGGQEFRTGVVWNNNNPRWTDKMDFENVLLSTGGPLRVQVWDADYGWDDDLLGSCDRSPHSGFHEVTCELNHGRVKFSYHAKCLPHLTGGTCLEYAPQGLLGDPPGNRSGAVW
Method: This model was selected as a surrogate assay for graft rejection during allogeneic bone marrow/stem cell transplantation to enable rapid testing of perforin inhibition in vivo. Mice were transplanted with a mixture of equal numbers of allogeneic immunologically mismatched and syngeneic immunologically matched bone marrow. […] Allogeneic cell survival in spleen and peripheral blood was determined 24 h after transplant, using C57BL/6 perforin-deficient mice (100% perforin inhibition) and untreated C57BL/6 mice (0% perforin inhibition) as controls.
Compounds were tested for in vivo efficacy as described previously.[14] Age- (8–12 weeks) and sex-matched wild-type (H-2D^b, CD45.2^+) or perforin-deficient C57BL/6 mice (C57BL/6-Prf1^tm1Sdz/J; H-2D^b, CD45.2^+) received 12 ×10^6 bone marrow cells from both allogeneic BALB/c (H-2D^d) MHC-mismatched and syngeneic C57BL/6 (H-2D^b) MHC-matched mice (24 × 10^6 cells total). The wild-type recipient mice were treated with perforin inhibitor compounds by intraperitoneal injection in 20% hydroxypropyl-β-cyclodextrin vehicle (10 mL/kg), or with vehicle alone; perforin-deficient mice remained untreated. The mice were euthanized 24 h after bone marrow transfer for peripheral blood mononuclear cell (PBMC) and spleen collection.
Throughout the study, we utilized two strategies to distinguish between recipient, donor allogeneic, and donor syngeneic cells based on either fluorescent labeling prior to transplant or congenic marker expression (CD45.1/CD45.2). In the fluorescent dye approach, allogeneic wild-type BALB/c (H-2D^d, CD45.2^+) bone marrow was labeled with 1 μM carboxyfluorescein succinimidyl ester (CFSE) prior to mixing with syngeneic bone marrow from C57BL/6 congenic mice (CD45.1^+). Twenty-four hours after cell transfer, the harvested cells were stained with anti-CD45.1-phycoerythrin and anti-TER119-allophycocyanin monoclonal antibodies (BioLegend, San Diego, CA). TER119 was used for erythroid exclusion prior to the identification of allogeneic (CFSE^+) and syngeneic (CD45.1^+) donor cells. Using a second purely congenic marker approach, allogeneic BALB/c congenic (H-2D^d, CD45.1^+) bone marrow was mixed with syngeneic C57BL/6 double congenic (H-2D^b, CD45.1^+CD45.2^+) bone marrow prior to transfer. The harvested cells were stained with anti-CD45.1-phycoerythrin, anti-CD45.2-phycoerythrin-cyanine-7, and anti-TER119-allophycocyanin monoclonal antibodies (BioLegend, San Diego, CA). TER119 was used for erythroid exclusion, prior to identification of allogeneic donor (CD45.1^+), syngeneic donor (CD45.1^+ CD45.2^+), and recipient (CD45.2^+) cells. Dead cells were excluded using 7-aminoactinomycin D. Samples were acquired with an LSR Fortessa (BD Biosciences) and analyzed using FlowJo version 9 software (BD Biosciences). Prism version 9 (GraphPad) was used to calculate CTL indices as the percentage survival of syngeneic donor cells divided by the percentage survival of allogeneic donor cells. […] In vivo perforin inhibition animal experiments were approved by the Animal Ethics Committee of the QIMR Berghofer Medical Research Institute.

[1] = tested on: perforin-dependent cytotoxicity of KHYG-1 NK cells on K562 target cells; assay: KHYG-1 cytotoxicity assay (51Cr-labeled K562 target cells); format: cell-based; details: Homo sapiens; concentration inhibiting 90% of perforin-dependent cytotoxicity; K562 targets, effector/target 2:1, 4 h, RPMI 0.1% BSA; read-out: KHYG-1 IC90
Method: (Table 1). […] An IC90 was used rather than an IC50 as we anticipated that elevated suppression of perforin activity is likely required to preserve the transplanted bone marrow stem cells in vivo.
The inhibition of the cytotoxic activity of KHYG-1 NK cells on K562 target cells was determined as described previously.[14] Briefly, compounds were added to KHYG-1 cells at 6–7 concentrations ranging from 20 μM to 312.5 nM in 2-fold dilutions in RPMI medium (Thermo Fisher Scientific, Waltham, MA) supplemented with 0.1% bovine serum albumin (BSA; Sigma-Aldrich, St. Louis, MO) for 20 min. ^51Cr-labeled K562 leukemia target cells were added to KHYG-1 cells at an effector/target ratio of 2:1 and incubated at 37 °C for 4 h. ^51Cr release was assayed using a Harvesting Press (Skatron Instruments, Lier, Norway), and radioactivity was estimated on a Wallac Wizard 1470 Automatic γ counter (Turku, Finland). The IC90 values were calculated by fitting a four-parameter logistic sigmoidal dose–response curve to the data using Prism version 8 (GraphPad, San Diego, CA). Each IC90 value represents the mean of at least three independent experiments, where six to seven concentrations were tested in triplicate for each compound.

[2] = Splenocyte cellularity and tolerability in the bone marrow transfer assay; format: in vivo
Method: For the determination of splenic cell counts, mouse spleens were harvested and the cells dispersed in media by gentle teasing and then centrifuged at 500g. Cell pellets were resuspended in media and total spleen cell counts were performed manually using a standard hemocytometer and light microscopy. […] Peripheral blood cell counts and spleen white blood cell counts were determined on a Beckman Coulter Ac.T diff hematology analyzer.

[3] = set-up: method as in PMID 28582670; AUC: concentration or dose not given beside the values; details: mouse plasma; cited from earlier work
recombinant perforin = tested on: recombinant perforin; set-up: method as in PMID 28582670, PMID 28110869; details: lytic activity of recombinant perforin against Jurkat T leukemia cells; cited from earlier work
[4] = Plasma protein binding by equilibrium dialysis; format: in vitro ADME, mouse; details: CD1, pH 7.4; mouse plasma, 10 μM, equilibrium dialysis
Method: The plasma protein binding of the compounds was determined by equilibrium dialysis (12–14 kDa cutoff membrane). […] The dialysis unit was covered with an adhesive sealing film to prevent evaporation of the contents and placed in an incubator (Innova-42, New Brunswick Scientific) maintained at 37 °C with gentle mixing (80 rpm) for 6 h. Next, a 10 μL sample was aspirated from the plasma side and mixed with 90 μL of fresh PBS, whereas a 90 μL sample from the buffer side was removed and combined with 10 μL of drug-free plasma to ensure uniform matrix composition. Ice-cold acetonitrile (300 μL; Merck Millipore, Burlington, MA) containing internal standard (a BZS analogue of similar chemical structure) was added to each sample to precipitate protein and was vortexed for 2 min and centrifuged for 5 min at 13 000 rpm. The supernatant was diluted with 0.01% formic acid in ultrapure water (Milli-Q) (1:1) and quantitated by liquid chromatography–tandem mass spectrometry (LC-MS/MS). Each compound was tested in triplicate alongside control compounds known to have low (e.g., lidocaine) and high (e.g., amitriptyline) plasma protein binding. For media binding studies, the same assay was used, but RPMI with 0.1% BSA was used in place of CD1 mouse plasma.

[5] = all dose levels (100, 75 and 50% of MTD), qd x 4
[6] = 100 mg/kg qd x 4 (0, 24, 48 h prior to and 18 h after transfer)

SMILES: CN1Cc2cc(-c3ccc(-c4cncc(NS(=O)(=O)c5ccc(F)cc5F)c4)s3)ccc2C1=O [Compound 3, 2,4-difluoro-N-{5-[5-(2-methyl-1-oxo-2,3-dihydro-1H-isoindol-5-yl)-2-thienyl]-3-pyridinyl}benzenesulfonamide]
% perforin inhibition, spleen (perforin; 60 mg/kg qd x 4 (0, 24, 48 h prior to and 18 h after transfer)): 7%
% perforin inhibition, spleen (perforin; 90 mg/kg qd x 4 (0, 24, 48 h prior to and 18 h after transfer)): 10%
IC90 [1]: 16 ± 3.6 µM
reductions in splenocyte number [2, 5]: only minor reductions
tolerability [2, 5]: well tolerated
AUC [3]: 220 µM·h
Cmax [3]: 9.8 µM

SMILES: CN1Cc2cc(-c3ccc(-c4cncc(NS(=O)(=O)c5ccc([N+](=O)[O-])cc5)c4)s3)ccc2C1=O [Compound 4, N-{5-[5-(2-methyl-1-oxo-2,3-dihydro-1H-isoindol-5-yl)-2-thienyl]-3-pyridinyl}-4-nitrobenzenesulfonamide]
% perforin inhibition, spleen (perforin; [6]): 80.53%
IC90 [1]: 19.9 ± 3.7 µM
IC50 (recombinant perforin): 3.13 µM
AUC [3]: 383 µM·h
Cmax [3]: 64.4 µM
fraction unbound at 6 h, 10 μM [4]: 0.0031

SMILES: CN1Cc2cc(-c3ccc(-c4cnc(Cl)c(NS(=O)(=O)c5ccc(F)cc5F)c4)s3)ccc2C1=O [Compound 9, N-{2-chloro-5-[5-(2-methyl-1-oxo-2,3-dihydro-1H-isoindol-5-yl)-2-thienyl]-3-pyridinyl}-2,4-difluorobenzenesulfonamide]
% perforin inhibition, spleen (perforin; 120 mg/kg qd x 4 (0, 24, 48 h prior to and 18 h after transfer)): 61.28%
increase in allogeneic bone marrow survival in the spleen, % of that seen in perforin-deficient mice (perforin; dose at or near the MTD, 0, 24, 48 h prior to and 18 h after cell transfer): 61%
IC90 [1]: 1.86 ± 0.44 µM
reduction in splenocyte cellularity ([2]; dose at or near MTD, qd x 4, after allogeneic bone marrow transplantation): much higher
IC50 (recombinant perforin): 1.03 µM
AUC [3]: 2364 µM·h
Cmax [3]: 149 µM
fraction unbound at 6 h, 10 μM [4]: 0.0002

Now from value to molecule, other results behind:

% perforin inhibition, spleen (perforin; [6]): 14.88%
fraction unbound at 6 h, 10 μM [4]: 0.0048
SMILES: CN1Cc2cc(-c3ccc(-c4cncc(NS(=O)(=O)c5c(F)cc(F)cc5F)c4)s3)ccc2C1=O [Compound 5, 2,4,6-trifluoro-N-{5-[5-(2-methyl-1-oxo-2,3-dihydro-1H-isoindol-5-yl)-2-thienyl]-3-pyridinyl}benzenesulfonamide]
IC90 [1]: 10.1 ± 1.8 µM
IC50 (recombinant perforin): 1.76 µM
AUC [3]: 1019 µM·h
Cmax [3]: 124 µM

% perforin inhibition, spleen (perforin; [6]): 22.70%
fraction unbound at 6 h, 10 μM [4]: 0.0023
SMILES: CN1Cc2cc(-c3ccc(-c4cncc(NS(=O)(=O)c5ccc(C#N)cc5)c4)s3)ccc2C1=O [Compound 6, 4-cyano-N-{5-[5-(2-methyl-1-oxo-2,3-dihydro-1H-isoindol-5-yl)-2-thienyl]-3-pyridinyl}benzenesulfonamide]
IC90 [1]: 30.9 ± 10.5 µM
IC50 (recombinant perforin): 5.17 µM
AUC [3]: 642 µM·h
Cmax [3]: 87.3 µM

% perforin inhibition, spleen (perforin; 160 mg/kg qd x 4 (0, 24, 48 h prior to and 18 h after transfer)): 39.14%
fraction unbound at 6 h, 10 μM [4]: 0.0003
SMILES: CN1Cc2cc(-c3ccc(-c4cnc(F)c(NS(=O)(=O)c5ccc(F)cc5F)c4)s3)ccc2C1=O [Compound 8, 2,4-difluoro-N-{2-fluoro-5-[5-(2-methyl-1-oxo-2,3-dihydro-1H-isoindol-5-yl)-2-thienyl]-3-pyridinyl}benzenesulfonamide]
IC90 [1]: 3.54 ± 0.65 µM
IC50 (recombinant perforin): 1.99 µM
AUC [3]: 2885 µM·h
Cmax [3]: 236 µM
